# Results published in patent US4518611A, “2-Furylbutyrolactone modulation of the immune system in mammals” (priority 1983, dated 1985).
# Several values for one entry are separate records, joined by “and”; a condition that tells them apart may be missing. Equal values may be shown once. Read-outs that look alike come from different tables or passages of the source.
# Key:
# CD rats = settings: 14 days
# Method: (§1) Single oral dose LD50 in CD-1 mice and CD rats, obtained from Charles River U.K. Ltd., for Cpd. 1 is determined. […] Cpd. 1, dissolved in buffer, or just buffer is administered orally and the mice and rats are observed for 14 days after dosing. After 14 days, the animals are sacrificed and necropsy is performed to check for gross evidence of toxicity.
# CD-1 mice = settings: 14 days
# Method: as §1
# spleen lymphocytes = settings: 7 days
# Method: The purpose of this assay is to challenge lymphocytes in microcultures with one or more polyclonal mitogens at concentrations that will induce mitogenesis within 72 hours of stimulation.
# In the mouse model, spleens are removed from different strains of mice and the spleen cells are teased free and suspended in RPMI-1640 tissue culture medium at a concentration of usually […]. These cells are dispensed at a concentration of 5.0×10^5 cells per microculture well in a 96 well flat bottom 96 well tissue culture plate. All testing of the compounds of this invention or mitogens are done in replicates of 10. The cells are then treated with PHA, Con-A, specific antigens, or buffer only. If in vitro testing is done, varying concentrations of the compounds of this invention or buffer only are added to the cells as well. After treatment with the mitogens and/or compounds of this invention, the cells are incubated for 72 hours. The response of these cells to mitogens and/or the compounds of this invention is assessed using ^14 C-thymidine labeling on the fourth day at a concentration of 0.01 μCi/well. The labeled cells are harvested using a lymphocyte harvestor and placed onto fibrous paper discs. A scintillation cocktail is added to vials containing the discs and the results are obtained using a LKB-liquid scintillation counter (Model 1216/Rackbeta II). The data is expressed as a ratio of the cpm of the mitogen stimulated group to the control (nonmitogen) treated group=lymphocyte stimulation index (LSI).
# The lymphocyte stimulation assay may be performed directly on spleen cells obtained from various strains of mice not treated with the compounds of this invention or on lymphocytes obtained from human […]. […] Alternatively, the mice may be treated in vivo with the compounds of this invention by intraperitoneal multi-dose schedules, followed by sacrifice and harvesting spleen lymphocytes. These cells are then tested for their response to polyclonal mitogens or specific antigens used to immunize the mice. In this system however, no additional compound is added to the in vitro lymphocyte stimulation assay system.
# Two strains of mice, C57BL/6 and BDF1 are treated for seven days with i.p. administration of either 25, 50, 100, 200, or 400 mg/kg of Cpd. 1 or just buffer. This is followed on the eighth day by a lymphocyte stimulation assay.
# BSA antibody response = system: BSA antibody response
# Source text: The effect of the compounds of this invention on the immune response to specific antigens involves immunization of mice with specific antigens such as bovine serum albumin (BSA) or keyhole limpet hemocyanin (KLH). Following immunization, it is possible to assess the cell-mediated or humoral (antibody) immune response to these antigens by various methods:
# (2) Antibody response to soluble antigens such as BSA or KLH can be quantitated using a micro-ELISA solid phase heterogeneous immunoassay. The assay can be designed to quantitate class specific immunoglobulins (i.e., IgG or IgM).
# The cut-off for the titer was the highest dilution of mouse serum yielding on O.D.≤0.1 when read on the MR-600 Dynatech micro-ELISA reader.
# Mice of the C57BL/6 strain are given i.p. injections of either 50, 100, 200 or 400 mg/kg of Cpd. 1 or buffer for twelve days (days 1-12). An antigen, bovine serum albumin (BSA), is administered intraperitoneally with Freund's Complete Adjuvant (FCA) on days 1, 7 and 14. Blood samples are taken for assay of the antibody response on days 0, 5, 13, and 19.
# L5178Y tumor cells = settings: for No. Survivors: 100 mg/kg
# Method: Ten days later the resultant tumor nodule, about 1 cm in size, is surgically excised. If the excision was successful, no subcutaneous tumors develop at the site of implantation. […] These mice are considered to be in the tumor dormant state.
# The effect of Cpd. 1 on the establishment of the L5178Y tumor dormant state is studied by treating forty DBA/2 mice with Cpd. 1 after the mice have undergone the TDS inducing procedure. […] 1 at 100 mg/kg and the remaining twenty mice receive buffer only. A partial peritoneal lavage is performed twenty-five days after the last dose of Cpd. 1 and the peritoneal exudate fluid is plated out for determination of tumor cell numbers (tumor cell quantitative assay). Survival time is recorded out to 90 days after challenge with the viable L5178Y tumor cells. The percent mortality is calculated for each group.
# The effect of Cpd. 1 on the establishment of the L5178Y tumor dormant state was studied by treating forty DBA/2 mice with Cpd. 1 after the mice had undergone the TDS inducing procedure. Two days after the mice were challenged with i.p. administration of 50,000 viable L5178Y tumor cells, twenty of these mice received seven consecutive days of i.p. treatment with Cpd. 1 at 100 mg/kg and the remaining twenty mice received buffer only. A partial peritoneal lavage was performed twenty-five days after the last dose of Cpd. 1 and the peritoneal exudate fluid was plated out for determination of tumor cell numbers (tumor cell quantitative assay). Survival time was recorded out to 114 days after challenge with the viable L5178Y tumor cells. The percent mortality was calculated for each group.
# [1] = No. tumor cells >100,000, 100 mg/kg i.p., 7 days
smiles,measurement,setting,value
"Cc1ccc(C2(O)C(=O)OC3C(O)COC32O)o1.Cc1ccc(C2(O)C(=O)OC3C(O)COC32O)o1.O=C1CCC(=O)O1 (stereo not drawn) [Cpd. 1, 2-furylbutyrolactone:succinic anhydride]",deaths or signs of toxicity,CD rats; 5 g/kg oral,No deaths or signs of toxicity
same,LD50,CD rats; single oral dose,> 5000 mg/kg
same,deaths or signs of toxicity,CD-1 mice; 5 g/kg oral,No deaths or signs of toxicity
same,LD50,CD-1 mice; single oral dose,> 5000 mg/kg
same,"Lymphocyte Stimulation Index, Con-A",spleen lymphocytes; 25 mg/kg i.p.,4.3
same,"Lymphocyte Stimulation Index, Control (buffer, pH 8.05)",spleen lymphocytes; 25 mg/kg i.p.,0.8
same,"Lymphocyte Stimulation Index, PHA",spleen lymphocytes; 25 mg/kg i.p.,13.8
same,"Lymphocyte Stimulation Index, Con-A",spleen lymphocytes; 50 mg/kg i.p.,21.6
same,"Lymphocyte Stimulation Index, Control (buffer, pH 8.05)",spleen lymphocytes; 50 mg/kg i.p.,0.9
same,"Lymphocyte Stimulation Index, PHA",spleen lymphocytes; 50 mg/kg i.p.,52.1
same,"Lymphocyte Stimulation Index, Con-A",spleen lymphocytes; 100 mg/kg i.p.,17.9
same,"Lymphocyte Stimulation Index, Control (buffer, pH 8.05)",spleen lymphocytes; 100 mg/kg i.p.,0.7
same,"Lymphocyte Stimulation Index, PHA",spleen lymphocytes; 100 mg/kg i.p.,48.7
same,"Lymphocyte Stimulation Index, Con-A",spleen lymphocytes; 200 mg/kg i.p.,2.9
same,"Lymphocyte Stimulation Index, Control (buffer, pH 8.05)",spleen lymphocytes; 200 mg/kg i.p.,0.8
same,"Lymphocyte Stimulation Index, PHA",spleen lymphocytes; 200 mg/kg i.p.,7.8
same,"Lymphocyte Stimulation Index, Con-A",spleen lymphocytes; 400 mg/kg i.p.,0.9
same,"Lymphocyte Stimulation Index, Control (buffer, pH 8.05)",spleen lymphocytes; 400 mg/kg i.p.,0.9
same,"Lymphocyte Stimulation Index, PHA",spleen lymphocytes; 400 mg/kg i.p.,1.1
same,Micro-ELISA Titer,"BSA antibody response; 50 mg/kg i.p., Day 5",N/R
same,Micro-ELISA Titer,"BSA antibody response; 50 mg/kg i.p., Prebleed",N/R
same,antibody titer versus control (in words),"BSA antibody response; 50 mg/kg, day 19",A slight increase of antibody titer over the control
same,Micro-ELISA Titer,"BSA antibody response; 100 mg/kg i.p., Day 5",N/R
same,Micro-ELISA Titer,"BSA antibody response; 100 mg/kg i.p., Prebleed",N/R
same,Micro-ELISA Titer,"BSA antibody response; 200 mg/kg i.p., Day 5",N/R
same,Micro-ELISA Titer,"BSA antibody response; 200 mg/kg i.p., Prebleed",N/R
same,Micro-ELISA Titer,"BSA antibody response; 400 mg/kg i.p., Day 5",N/R
same,Micro-ELISA Titer,"BSA antibody response; 400 mg/kg i.p., Prebleed",N/R
same,antibody response versus control (in words),"BSA antibody response; 400 mg/kg, day 19",the antibody responses to BSA are equal at the 0 mg/kg and 400 mg/kg dose
same,stimulation of antibody response (in words),"BSA antibody response; 50 and 100 mg/kg, day 13",only a slight amount of stimulation
same,increase over controls of antibody titer (fold),"BSA antibody response; 100 and 200 mg/kg, day 19",16 fold
same,stimulation of antibody response (fold),"BSA antibody response; 200 and 400 mg/kg, day 13",four-fold
same,numbers of tumor cells recovered (in words),"L5178Y tumor cells; 100 mg/kg i.p., 7 days",significant reduction in the numbers of tumor cells recovered
same,survival (in words),"L5178Y tumor cells; 100 mg/kg i.p., 7 days",significantly greater survival
same,No. Survivors,L5178Y tumor cells; 90 days post-challenge,10
same,No. Survivors,L5178Y tumor cells; 114 days post-challenge,19
same,"Frequency (mice), treated group","L5178Y tumor cells; No. tumor cells 1,000 to 100,000, 100 mg/kg i.p., 7 days",7 and 4
same,"% of Total, treated group",L5178Y tumor cells; [1],6% and 4.3%
same,"Frequency (mice), treated group",L5178Y tumor cells; [1],1
